Assay results as given in paper PMC10107917 (ACS Medicinal Chemistry Letters, 2023).
Bridge positions count the residues as written; N and C are the ends. Peptide text beside a SMILES is read from it.

Key:
[1] = molecular target: T1, matriptase-1 (MT1) (Homo sapiens, UniProt Q9Y5Y6); experiment: Selectivity assay against matriptase-1; type: biochemical; details: Figure S1
T1 construct: Recombinant human matriptase-1/ST14 catalytic domain; purchased R&D Systems, USA
T1 sequence (Q9Y5Y6 615-854 limits assumed): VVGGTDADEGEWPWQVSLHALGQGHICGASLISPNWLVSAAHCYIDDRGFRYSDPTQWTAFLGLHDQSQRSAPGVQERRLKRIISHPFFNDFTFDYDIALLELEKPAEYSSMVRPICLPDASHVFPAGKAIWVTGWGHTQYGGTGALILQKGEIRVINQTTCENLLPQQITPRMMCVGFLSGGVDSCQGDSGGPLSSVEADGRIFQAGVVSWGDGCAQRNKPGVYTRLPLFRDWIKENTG
Protocol: (§1) The selectivities of the strongest furin inhibitors 3, 5, 6, and FI were assessed using commercially available, purified, recombinant proteases, namely, matriptase-1 (MT1) and matriptase-2 (MT2). Both enzymes belong to the type II transmembrane serine proteases, present trypsin-like specificity, and share high structural similarity but differ in biological activity.[33] […]
(§2) The IC50 values (inhibitor concentrations giving 50% inhibition of enzyme activity) were calculated from plots of enzyme activity (% of control sample) versus the inhibitor’s concentration using a four-parameter fit model (GraFit 5.0.12 Erithacus Software Ltd.). The IC50 values were determined from triplicate measurements with at least seven different inhibitor concentrations. The K i values […] were calculated using the Cheng-Prusoff equation, assuming the competitive mode of inhibition, according to the following relationship: IC50 = K i(1+S/Km). All measurements were performed using a Fluostar Omega microplate reader (BMG Labtech, Germany) and 96-well black plates (BRAND, Germany). Recombinant human matriptase-1/ST14 catalytic domain was purchased from R&D Systems, USA. Recombinant human matriptase-2 was obtained from Enzo Life Sciences, Switzerland.
(§3) Soluble human recombinant furin was kindly gifted by Dr Anna Kwiatkowska (group of Prof. Robert Day from Université de Sherbrooke).4
(§4) The following assay buffers were used: […] (matriptase-1 and matriptase-2), pH 7.5 100 mM HEPES with 1 mM CaCl 2 and 1.8 mg/mL BSA (furin). The substrates used in the assays were as follows: for matriptase-1 and matriptase-2 Boc-Gln-Ala-Arg-AMC (Pepta Nova, Germany) in final concentration of 5 µM, for furin […] (Pepta Nova, Germany) in final concentration of 20 µM. Enzymes concentrations were as follows: 1.25 ng/mL of matriptase-1, 1.51 U/mL for matriptase-2, and 1.1 nM for furin. In the case of matriptase-1 and matripase-2 concentrations were calculated according to information provided by the suppliers.
(§5) In short, the tested compounds were added to the appropriate protease in different concentrations and incubated in an assay buffer at 37 °C for 30 min. […] Reactions were monitored for at least 40 min at 37 °C. […] The percentage inhibition of an enzyme was calculated relative to the control sample without an inhibitor. The K m value for furin substrate was determined by incubating the enzyme with its substrate in various concentrations as recommended.5 Plots of the substrate concentration versus the initial reaction velocity were analyzed according to Michaelis-Menten equation using GraFit 5.0.12 Erithacus Software Ltd. A double reciprocal (Lineweaver-Burk) plot was used to determine the Michaelis constant K m value. […]

[2] = molecular target: T2, matriptase-2 (MT2) (Homo sapiens, UniProt Q8IU80); experiment: Selectivity assay against matriptase-2; type: biochemical; details: Figure S1
T2 construct: purchased Enzo Life Sciences, Switzerland
T2 sequence (Q8IU80 1-811): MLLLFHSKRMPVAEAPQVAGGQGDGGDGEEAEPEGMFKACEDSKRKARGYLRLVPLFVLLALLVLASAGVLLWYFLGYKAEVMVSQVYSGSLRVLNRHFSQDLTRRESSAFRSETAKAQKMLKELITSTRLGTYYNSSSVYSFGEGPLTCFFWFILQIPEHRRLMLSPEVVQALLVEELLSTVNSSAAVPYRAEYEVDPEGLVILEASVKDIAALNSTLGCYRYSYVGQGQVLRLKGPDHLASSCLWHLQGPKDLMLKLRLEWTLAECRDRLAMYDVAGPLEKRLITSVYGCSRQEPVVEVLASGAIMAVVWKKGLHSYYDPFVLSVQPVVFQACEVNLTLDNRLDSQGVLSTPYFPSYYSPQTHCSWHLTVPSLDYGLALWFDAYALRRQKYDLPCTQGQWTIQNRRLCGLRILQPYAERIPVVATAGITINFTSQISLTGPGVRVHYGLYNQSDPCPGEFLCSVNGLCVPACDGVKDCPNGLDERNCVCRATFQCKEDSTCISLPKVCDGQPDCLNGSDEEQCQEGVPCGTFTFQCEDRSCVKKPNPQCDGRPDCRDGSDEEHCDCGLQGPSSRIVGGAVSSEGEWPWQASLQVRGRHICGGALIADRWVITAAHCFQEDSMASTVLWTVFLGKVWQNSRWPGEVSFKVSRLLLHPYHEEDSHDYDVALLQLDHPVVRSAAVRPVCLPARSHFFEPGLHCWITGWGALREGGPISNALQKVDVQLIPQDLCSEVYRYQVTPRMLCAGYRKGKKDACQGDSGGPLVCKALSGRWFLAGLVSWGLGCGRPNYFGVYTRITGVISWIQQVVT
Protocol: as §1, §2, §3, §4, §5

activity against MT1 [1]	activity in assay with MT2 [2]	Structure (SMILES)
not active	only irrelevant activity	CC[C@H](C)[C@@H]1NC(=O)[C@@H]2CCCN2C(=O)[C@@H]2CCCN2C(=O)[C@H]([C@@H](C)CC)NC(=O)[C@H](CO)NC(=O)[C@H](CCCCN)NC(=O)[C@H](CCCCN)NC(=O)[C@@H](NC(=O)[C@H](CCCNC(=N)N)NC(=O)[C@@H](N)CCCCN)CSSC[C@@H](C(=O)N[C@@H](Cc2ccccc2)C(N)=O)NC1=O [FI, Lys-Arg-Cys(&)-Lys-Lys-Ser-Ile-Pro-Pro-Ile-Cys(&)-Phe-NH2, reference compound] (H-KRCKKSIPPICF-NH2; disulfide 3-11; N-terminus assumed)
not active	only irrelevant activity	CC[C@H](C)[C@@H]1NC(=O)[C@@H]2CCCN2C(=O)[C@@H]2CCCN2C(=O)[C@H]([C@@H](C)CC)NC(=O)[C@H](CO)NC(=O)[C@H](CCCCN)NC(=O)[C@H](CCCCN)NC(=O)[C@@H](NC(=O)[C@H](CCCNC(=N)N)NC(=O)[C@H](CCCNC(=N)N)NC(=O)[C@@H](N)CCCNC(=N)N)CSSC[C@@H](C(=O)N[C@@H](Cc2ccccc2)C(N)=O)NC1=O [inhibitor 3, Arg-Arg-Arg-Cys(&)-Lys-Lys-Ser-Ile-Pro-Pro-Ile-Cys(&)-Phe-NH2] (H-RRRCKKSIPPICF-NH2; disulfide 4-12)
not active	only irrelevant activity	CC[C@H](C)[C@@H]1NC(=O)[C@@H]2CCCN2C(=O)[C@@H]2CCCN2C(=O)[C@H]([C@@H](C)CC)NC(=O)[C@H](CO)NC(=O)[C@H](CCCCN)NC(=O)[C@H](CCCCN)NC(=O)[C@@H]2CSSC[C@H](NC1=O)C(=O)N[C@@H](Cc1ccccc1)C(=O)N[C@@H](CCCCN)C(=O)N[C@@H](CCCNC(=N)N)C(=O)N[C@@H](CCCNC(=N)N)C(=O)N2 [inhibitor 5, &^1Lys-Arg-Arg-Cys(&^2)-Lys-Lys-Ser-Ile-Pro-Pro-Ile-Cys(&^2)-Phe&^1] (cyclo(KRRCKKSIPPICF); disulfide 4-12)
not active	only irrelevant activity	CC[C@H](C)[C@@H]1NC(=O)[C@@H]2CCCN2C(=O)[C@@H]2CCCN2C(=O)[C@H]([C@@H](C)CC)NC(=O)[C@H](CO)NC(=O)[C@H](CCCCN)NC(=O)[C@H](CCCCN)NC(=O)[C@@H]2CSSC[C@H](NC1=O)C(=O)N[C@@H](Cc1ccccc1)C(=O)N[C@@H](CCCNC(=N)N)C(=O)N[C@@H](CCCNC(=N)N)C(=O)N[C@@H](CCCNC(=N)N)C(=O)N2 [inhibitor 6, &^1Arg-Arg-Arg-Cys(&^2)-Lys-Lys-Ser-Ile-Pro-Pro-Ile-Cys(&^2)-Phe&^1] (cyclo(RRRCKKSIPPICF); disulfide 4-12)
